pIC50: −log10 of the molar value.
Biological target: T1, HsHaspin-kd (Homo sapiens, UniProt Q8TF76)
T1 construct: kinase domain, amino acids 470–798 cloned in pGEX-6P-3; made in house; host or cells: bacteria
T1 sequence (Q8TF76 470-798): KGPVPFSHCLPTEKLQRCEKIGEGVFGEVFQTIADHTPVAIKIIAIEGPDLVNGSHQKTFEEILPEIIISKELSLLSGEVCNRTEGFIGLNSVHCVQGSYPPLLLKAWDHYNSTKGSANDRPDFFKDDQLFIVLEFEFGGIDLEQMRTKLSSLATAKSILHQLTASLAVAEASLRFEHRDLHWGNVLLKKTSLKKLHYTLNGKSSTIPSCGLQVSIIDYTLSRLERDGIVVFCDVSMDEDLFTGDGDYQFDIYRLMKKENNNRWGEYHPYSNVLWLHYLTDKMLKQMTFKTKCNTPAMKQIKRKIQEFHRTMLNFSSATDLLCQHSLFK
Test: ADP-Glo in vitro kinase inhibition assay, Haspin
Assay type: biochemical
Settings: for remaining activity at 1 µM: 1 μM compound; for remaining activity at 1 µM / pIC50 / remaining activity at 10 µM: 10 μM ATP, duplicate; for remaining activity at 1 µM / remaining activity at 10 µM: read-out: Haspin % residual activity; for remaining activity at 10 µM: 10 μM compound; for SI: selectivity index = IC50 second most inhibited kinase/IC50 Haspin: second most inhibited kinase named in parentheses below the value (PIM1 or CLK1)
Procedure: We previouly reported that substitution at the 3-position with halogen atoms or pyridinyl or formyl groups was compatible with high potency toward Haspin kinase. To check if the current structural changes were in line with potent Haspin inhibition and high selectivity, enabling consideration of these compounds as possible targeting ligands for the PROTAC approach, compounds 2, 3, 8–11, and 15–17 were evaluated toward a panel of eight protein kinases, including Haspin, as well as other kinases known to be frequently cross-inhibited (CLK1, DYRK1A, CDK9/Cyclin T, GSK-3β, CK1ε, CDK5/p25, and Pim1) (Table 1). The percentage of residual kinase activity was evaluated at 10 μM and 1 μM compound concentrations. […].
Kinase inhibition was tested in 384-well plates using the ADP-GloTM assay kit (Promega, Madison, WI, USA) according to the procedure recommended by the manufacturer. Reactions were set up in a final volume of 6 μL in an appropriate kinase buffer (10 mM MgCl2, 1 mM EGTA, 1 mM DTT, 25 mM Tris-HCl pH 7.5, 50 μg/mL heparin) with either protein or peptide as the substrate in the presence of 10 μM ATP. To stop the kinase reaction, 6 μL of ADP-GloTM Kinase Reagent was added after 30 min at 30 °C. Then, after 50 min of incubation at room temperature (RT), 12 μL of Kinase Detection Reagent was added. The transmitted signal was measured after 1 h at RT using the Envision (Perkin Elmer, Waltham, MA, USA) microplate luminometer and expressed in relative light units (RLU). In order to determine the half-maximal inhibitory concentration (IC50), all assays were performed in duplicate in the absence or presence of increasing doses of the tested compounds. GraphPad Prism10 software (GraphPad Software, San Diego, CA, USA) was used to fit dose–response curves and to determine the IC50 values. Kinase activities are given as percentages of maximal activity, i.e., measured in the absence of inhibitor. Peptide substrates were obtained from Proteogenix (Schiltigheim, France).
The following protein kinases were analyzed in this study: CDK5/p25 (human, vector pGEX-2T, expressed in bacteria; kindly provided by Dr. J. H. Wang) was assayed with 0.8 μg/μL of histone H1 as substrate; HsCDK9/CyclinT (NP_001252/KAI4065659, cloned in pTEFb vector, expressed by baculovirus in Sf9 insect cells) were assayed with 0.27 μg/μL of the following peptide: […], as substrate; HsCK1ε (NP_001885, cloned in pFAST-BAC vector, expressed in Sf9 insect cells) was assayed with 0.022 μg/μL of the following peptide: […]pAYSITA (“Sp” stands for phosphorylated serine) as CK1-specific substrate; HsGSK3β (AAH12760, cloned in pFAST-BAC, expressed by baculovirus in Sf9 insect cells) were assayed with 0.010 μg/μL of GS-1 peptide, a GSK-3-selective substrate ([…]pEDEEE); HsHaspin-kd (NP_114171, kinase domain, amino acids 470–798 cloned in pGEX-6P-3, expressed in bacteria) was assayed with 0.007 μg/μL of histone H3 (1–21) peptide ([…]) as substrate; Pim-1 (KAI4018123, expressed in bacteria) was assayed with 0.8 μg/μL of histone H1 as substrate; HsCLK1 (NP_004062, cloned in pFAST-BAC, expressed in Sf9 insect cells) was assayed with 0.027 μg/μL of the peptide: […]; RnDYRK1A-kd (Rattus norvegicus, amino acids 1–499, pGEX-2TK, expressed in bacteria, gift from Dr. W. Becker, Aachen, Germany) was tested in the presence of 0.033 μg/μL of the peptide: […].

| SMILES | remaining activity at 1 µM [%] | pIC50 | remaining activity at 10 µM [%] | SI: selectivity index = IC50 second most inhibited kinase/IC50 Haspin |
| --- | --- | --- | --- | --- |
| c1c[nH]c(-c2c[nH]c3cc4cnccc4cc23)c1 [Compound 17, 3-(1H-Pyrrol-2-yl)-1H-pyrrolo[3,2-g]isoquinoline] | 6 | 7.09 | 0 |  |
| c1cc2cc3c(-c4cc[nH]n4)c[nH]c3cc2cn1 [Compound 15, 3-(1H-Pyrazol-3-yl)-1H-pyrrolo[3,2-g]isoquinoline] | 0 | 7.51 | 0 | > 7 |
| COC(=O)/C=C/c1c[nH]c2cc3cnccc3cc12 [Compound 8, Methyl (E)-3-(1H-Pyrrolo[3,2-g]isoquinolin-3-yl)prop-2-enoate] | 11 | 7.81 | 6 | 26.1 |

The next compounds have a higher pIC50 than those just listed; values first:

| remaining activity at 1 µM [%] | pIC50 | remaining activity at 10 µM [%] | SI: selectivity index = IC50 second most inhibited kinase/IC50 Haspin | SMILES |
| --- | --- | --- | --- | --- |
| 0 | 7.91 | 0 | 8.2 | c1cc2cc3c(-c4cn[nH]c4)c[nH]c3cc2cn1 [Compound 16, 3-(1H-Pyrazol-4-yl)-1H-pyrrolo[3,2-g]isoquinoline] |
| 7 | 7.97 | 1 | 8.8 | Nc1ccc(-c2c[nH]c3cc4cnccc4cc23)cn1 [Compound 3, 5-(1H-Pyrrolo[3,2-g]isoquinolin-3-yl)pyridin-2-amine] |

— paper PMC12655252, “Synthesis of 1H-Pyrrolo[3,2-g]isoquinoline Derivatives as Ligands Targeting Haspin Kinase” (Molecules, 2025)
